# Laboratory results from patent US20060035813A1, “Methods and formulations comprising agonists and antagonists of nuclear hormone receptors” (priority 2002, published 2006).
# Entries after “also recorded” stand apart in the source; their conditions may differ.
# Legend:
# [1] = system: tyrosine aminotransferase (TAT) in HTC cells; type: cell-based, rat
# [2] = molecular target: T1, glucocorticoid receptor (GR) (Rattus norvegicus, UniProt P06536); type: cell-based
# T1 construct: expressed in transfected cells; host or cells: Cos7
# T1 sequence (P06536 1-795): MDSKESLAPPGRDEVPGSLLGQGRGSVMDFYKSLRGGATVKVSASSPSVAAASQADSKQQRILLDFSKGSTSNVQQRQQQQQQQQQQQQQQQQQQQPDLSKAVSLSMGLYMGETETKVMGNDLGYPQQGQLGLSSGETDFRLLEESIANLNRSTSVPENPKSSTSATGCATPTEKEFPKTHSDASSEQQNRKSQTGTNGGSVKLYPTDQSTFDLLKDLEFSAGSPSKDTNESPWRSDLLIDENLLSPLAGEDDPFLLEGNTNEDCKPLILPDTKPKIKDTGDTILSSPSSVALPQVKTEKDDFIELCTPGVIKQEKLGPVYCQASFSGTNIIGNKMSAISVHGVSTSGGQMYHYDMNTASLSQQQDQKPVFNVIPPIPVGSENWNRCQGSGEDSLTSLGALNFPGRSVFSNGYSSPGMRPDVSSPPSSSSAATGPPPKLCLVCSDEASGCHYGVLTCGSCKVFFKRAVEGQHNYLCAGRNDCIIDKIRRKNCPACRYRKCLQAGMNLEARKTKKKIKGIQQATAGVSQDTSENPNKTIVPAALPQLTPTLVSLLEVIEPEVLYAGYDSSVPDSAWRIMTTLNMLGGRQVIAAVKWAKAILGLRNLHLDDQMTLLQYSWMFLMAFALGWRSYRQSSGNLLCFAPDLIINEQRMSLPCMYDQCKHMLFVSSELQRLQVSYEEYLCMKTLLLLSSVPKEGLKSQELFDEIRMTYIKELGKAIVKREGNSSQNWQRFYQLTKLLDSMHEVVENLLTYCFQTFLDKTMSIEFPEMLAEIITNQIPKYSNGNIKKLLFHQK
# [3] = system: constitutive luciferase vector, pGL3 control; type: cell-based
# J774.1 cells = type: cell-based
# Raw264.7 cells = type: cell-based
# [4] = molecular target: T2, progesterone receptor B (PR-B) (Homo sapiens, UniProt P06401); settings: 100 nM progesterone; 2 ng/ml LF+500 ng/ml PA; RU486 up to 1 μM; pLTR luc
# T2 sequence (P06401 1-933): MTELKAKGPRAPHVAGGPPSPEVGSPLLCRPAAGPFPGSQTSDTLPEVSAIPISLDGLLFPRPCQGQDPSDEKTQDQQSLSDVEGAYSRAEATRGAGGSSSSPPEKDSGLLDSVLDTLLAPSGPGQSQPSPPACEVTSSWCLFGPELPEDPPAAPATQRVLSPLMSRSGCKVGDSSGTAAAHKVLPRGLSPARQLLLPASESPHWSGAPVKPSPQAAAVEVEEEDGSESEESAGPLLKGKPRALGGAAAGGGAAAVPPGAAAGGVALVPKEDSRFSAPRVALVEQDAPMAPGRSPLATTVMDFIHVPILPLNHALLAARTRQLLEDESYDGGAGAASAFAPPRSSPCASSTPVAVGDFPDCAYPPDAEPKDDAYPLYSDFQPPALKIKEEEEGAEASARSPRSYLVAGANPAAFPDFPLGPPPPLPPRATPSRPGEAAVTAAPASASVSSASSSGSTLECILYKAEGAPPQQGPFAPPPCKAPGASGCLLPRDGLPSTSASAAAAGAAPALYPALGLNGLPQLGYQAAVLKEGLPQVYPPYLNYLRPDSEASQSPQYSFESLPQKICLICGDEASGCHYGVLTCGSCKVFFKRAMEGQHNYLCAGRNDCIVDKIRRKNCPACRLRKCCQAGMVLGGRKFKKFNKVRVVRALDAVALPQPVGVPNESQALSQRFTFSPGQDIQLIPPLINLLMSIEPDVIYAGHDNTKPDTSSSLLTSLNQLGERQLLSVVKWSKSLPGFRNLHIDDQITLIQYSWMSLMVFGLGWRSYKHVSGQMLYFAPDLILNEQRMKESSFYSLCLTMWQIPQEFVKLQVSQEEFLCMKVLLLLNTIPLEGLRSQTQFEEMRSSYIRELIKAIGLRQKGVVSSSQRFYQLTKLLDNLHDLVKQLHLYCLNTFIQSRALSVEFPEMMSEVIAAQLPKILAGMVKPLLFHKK
# [5] = molecular target: T1, glucocorticoid receptor (GR); type: binding
structure (smiles),measurement,setting,value
"C[C@@H]1C[C@H]2[C@@H]3CCC4=CC(=O)C=C[C@]4(C)[C@@]3(F)[C@@H](O)C[C@]2(C)[C@@]1(O)C(=O)CO [Dex, dexamethasone]",Dex concentration as low as which TAT is induced,[1],10 nM
same,induction of TAT activity,[1],approximately 10 fold
COc1cccc(-c2cc(=O)c3ccccc3o2)c1N [PD98059],effect of MAPK inhibitor on dexamethasone-induced TAT activity,[1],repress dexamethasone-induced TAT activity
same,GR/GRE-specific effect of MAPK pathway inhibitor on Dex-induced GR transactivation,[2],does not affect GR transactivation; also recorded: no GRE specific effect; also recorded: did not alter GR repression; also recorded: does not have any GR specific effect
same,effect on GRE-luciferase activity,[2],decreased luciferase activity
same,effect on constitutive luciferase (pGL3 control),[3],decreased luciferase activity; also recorded: non-specific suppressive effect on luciferase
"CC#C[C@]1(O)CC[C@H]2[C@@H]3CCC4=CC(=O)CCC4=C3[C@@H](c3ccc(N(C)C)cc3)C[C@@]21C [RU 486, mifepristone]",effect of pretreatment on LeTx toxicity,J774.1 cells,does not prevent LeTx toxicity
same,effect of pretreatment on LeTx toxicity,Raw264.7 cells,does not prevent LeTx toxicity
same,mode of GR repression / antagonism,[2],competitive antagonist
same,repression of Dex-induced GR transactivation in the presence of LeTx,[2],fully repressed; also recorded: fully repress
same,repression of progesterone-induced PR-B transactivation in the presence of LeTx,[4],fully repress
same,competition with [3H] dexamethasone for binding to GR,[5],can compete
C[S+]([O-])c1ccc(-c2nc(-c3ccncc3)c(-c3ccc(F)cc3)[nH]2)cc1 (centres unmarked) [SB203580],effect of MAPK inhibitor on dexamethasone-induced TAT activity,[1],repress dexamethasone-induced TAT activity
same,GR/GRE-specific effect of MAPK pathway inhibitor on Dex-induced GR transactivation,[2],has no effect on GR-mediated transactivation
Nc1nccc(-c2c(-c3ccc(F)cc3)ncn2C2CCNCC2)n1 [SB220025],effect of MAPK inhibitor on dexamethasone-induced TAT activity,[1],repress dexamethasone-induced TAT activity
COc1ccc(C2CNC(=O)C2)cc1OC1CCCC1 (centres unmarked) [rolipram],effect on LeTx repression of dexamethasone-induced TAT activity,[1],does not prevent LeTx repression
same,effect of rolipram on LeTx toxicity,Raw264.7 cells,does not prevent LeTx toxicity
